# Patent US20110184147A1, “ENZYME SUBSTRATE FOR LABELING OF PROTEIN” (priority 2008, published 2011)
# Tests used:
# [1] = molecular target: T1, GTG (UniProt P08587); assay: Reactivity of GTG for fluorescent substrate (crosslinking with β-casein); assay type: biochemical, guinea pig; conditions: substrate 1 mM, β-casein 0.5 mg/ml, GTG 0.2 U/ml, 50 mM HEPES pH 7.4, overnight 27° C.
# T1 construct: purchased
# T1 sequence (P08587 1-690): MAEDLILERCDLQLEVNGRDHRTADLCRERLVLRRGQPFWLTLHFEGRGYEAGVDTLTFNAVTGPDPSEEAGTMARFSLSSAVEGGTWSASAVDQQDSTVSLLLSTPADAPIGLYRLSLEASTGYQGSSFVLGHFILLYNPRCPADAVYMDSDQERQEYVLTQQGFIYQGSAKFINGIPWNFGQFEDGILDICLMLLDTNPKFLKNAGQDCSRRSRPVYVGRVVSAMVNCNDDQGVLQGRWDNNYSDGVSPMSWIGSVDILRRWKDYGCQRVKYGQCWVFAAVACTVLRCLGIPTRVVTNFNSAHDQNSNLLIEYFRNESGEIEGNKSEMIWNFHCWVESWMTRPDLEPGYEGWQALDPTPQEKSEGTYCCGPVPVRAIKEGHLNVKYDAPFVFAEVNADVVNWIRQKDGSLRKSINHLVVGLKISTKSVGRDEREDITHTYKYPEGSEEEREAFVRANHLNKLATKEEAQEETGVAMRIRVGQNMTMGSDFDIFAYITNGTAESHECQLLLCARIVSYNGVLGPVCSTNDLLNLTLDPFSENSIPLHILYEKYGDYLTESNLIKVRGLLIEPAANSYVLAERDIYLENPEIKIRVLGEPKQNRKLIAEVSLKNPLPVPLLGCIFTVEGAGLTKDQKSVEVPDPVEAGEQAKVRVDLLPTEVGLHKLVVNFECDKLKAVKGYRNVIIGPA
# Protocol: In the experiment, β-casein was used as a protein having a TGase-recognizable Lys and a reaction for crosslinking with a fluorescent substrate was performed to evaluate its reactivity for GTG.
# To perform a binding reaction, FITC-β-Ala-QG, β-casein and GTG were added to 50 mM HEPES (5 mM NaCl, 10 mM CaCl2, pH 7.4) to give respective final concentrations of 1 mM, 0.5 mg/ml and 0.2 U/ml and the resulting mixture was left to stand overnight at 27° C. Two comparative samples were prepared; one was a GTG-free sample and the other was prepared by performing an MTG-catalyzed reaction. For the MTG-catalyzed binding reaction, FITC-β-Ala-QG, β-casein and MTG were added to a 10 mM phosphate buffer (pH 7) to give respective final concentrations of 1 mM, 0.5 mg/ml and 1 U/ml and the resulting mixture was left to stand overnight at 27° C. Tracing on the sample after the reaction was performed by the same procedure as in Experiment 2-2.
# [2] = system: BSA (antigen); assay: Antigen recognizing ability by ELISA (rabbit-derived anti-BSA IgG antibody); assay type: binding; conditions: rabbit-derived anti-BSA IgG antibody (polyclonal) modified by MTG
# Protocol: A study was made on samples that were prepared by introducing a fluorescent substrate (FITC-ε-Acp-QG or FITC-β-Ala-QG) into a rabbit-derived anti-BSA IgG antibody (polyclonal) under the same conditions as in Experiment 2-2.
# ELISA was performed by the following procedure (FIG. 3-5). • 1) To a Black Plate, 5 mg/ml of BSA (antigen) was added in an amount of 150 µl/well and left to stand overnight at 37° C. • 2) The product of 1) was washed with PBST five times. • 3) Modified anti-BSA IgG antibodies were added in an amount of 60 µl/well and left to stand at room temperature for 5 hours. • 4) The product of 3) was washed with PBST five times. • 5) Examination was made with a fluorescent imager. • 6) A […] sample of AP-labeled anti-rabbit IgG IgG antibodies were added in an amount of 150 µl/well and left to stand at 37° C. for 3 hours. • 7) The product of 6) was washed with TBST five times. • 8) The substrate was added and 10 minutes later, fluorescence derived from the enzymatic reaction was examined with a fluorescent imager.
# [3] = molecular target: T2, MTG (Streptomyces mobaraensis, UniProt P81453); assay: MTG-catalyzed introduction of fluorescent substrate into anti-PSA IgG antibody (optimization, substrate comparison); assay type: biochemical, microbial
# T2 construct: purchased AJINOMOTO (supplied as a gift)
# Protocol: To a 50 mM buffer whose pH was varied over the range from 5 to 9 (pH 5 acetate buffer; pH 6-7 phosphate buffer; pH 8 Tris-HCl; pH 9 boric acid buffer), FITC-β-Ala-QG, an anti-PSA (prostate specific antigen) IgG antibody (mouse-derived, monoclonal) and MTG were added to give respective final concentrations of 0.1 mM, 0.5 mg/ml, and 1 U/ml. These ingredients were well stirred and left to stand at 4° C. for reaction. After 1-hr or 6-hr reaction, the sample was mixed with a sample buffer and heated at 95° C. for 15 minutes to stop the reaction. Thereafter, SDS-polyacrylamide gel electrophoresis (SDS-PAGE) was applied. The gel from SDS-PAGE was stained with Coomassie Brilliant Blue (CBB) and observed with a fluorescent imager.
# To 50 mM Tris-HCl (pH 8), FITC-β-Ala-QG, an anti-PSA IgG antibody and MTG were added to give respective final concentrations of 1 mM, 0.5 mg/ml, and 0.001-1 U/ml. These ingredients were well stirred and left to stand at 4° C. for reaction. The reaction was stopped and evaluation was made by the same procedures as in Experiment 2-1.
# To 50 mM Tris-HCl (pH 8), FITC-β-Ala-QG, an anti-PSA IgG antibody and MTG were added to give respective final concentrations of 0.001-1 mM, 0.5 mg/ml, and 1 U/ml. These ingredients were well stirred and left to stand at 4° C. for reaction. The reaction was stopped and evaluation was made by the same procedures as in Experiment 2-1.
# To PBS, FITC-β-Ala-QG, an anti-PSA IgG antibody (mouse-derived, monoclonal) and MTG were added to give respective final concentrations of 1 mM, 0.5 mg/ml, and 1 U/ml. These ingredients were well stirred and left to stand at 4° C. or 40° C. for reaction. After 3-, 6- and 18-hr reactions, the reaction was stopped and evaluation was made by the same procedures as in Experiment 2-1.
# To PBS, FITC-β-Ala-QG, an anti-PSA IgG antibody (mouse-derived, monoclonal) and MTG were added to give respective final concentrations of 1 mM, 0.5 mg/ml, and 1 U/ml. These ingredients were well stirred and left to stand for 18 hours at 4° C. for reaction. For the purpose of comparison, two additional samples were prepared, one being free of FITC-β-Ala-QG-biotin and the other having been reacted with a biotin-free fluorescent substrate (FITC-β-Ala-QG). After the reaction, the samples were purified by ultrafiltration (product of MILLIPORE Corp.; 100 kDa cut).
# T2 sequence (P81453 77-407): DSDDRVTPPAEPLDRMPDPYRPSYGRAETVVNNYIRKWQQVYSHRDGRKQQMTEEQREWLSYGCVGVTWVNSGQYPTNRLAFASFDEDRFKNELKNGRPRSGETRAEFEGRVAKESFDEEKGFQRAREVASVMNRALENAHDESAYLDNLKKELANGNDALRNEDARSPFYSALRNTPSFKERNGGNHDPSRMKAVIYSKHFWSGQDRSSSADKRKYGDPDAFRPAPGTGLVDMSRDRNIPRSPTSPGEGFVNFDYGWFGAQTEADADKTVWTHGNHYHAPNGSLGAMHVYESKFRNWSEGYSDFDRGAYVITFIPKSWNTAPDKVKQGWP
smiles,measurement,setting,value
NC(=O)CCC(NC(=O)CCNC(=S)Nc1ccc(-c2c3ccc(=O)cc-3oc3cc(O)ccc23)c(C(=O)O)c1)C(=O)NCC(=O)O (stereo not drawn) [FITC-β-Ala-QG],Reactivity of fluorescent substrate for GTG,[1],also recognized by MTG
same,Antigen recognizing ability of modified antibody,[2],maintained its antigen recognizing ability
same,pH of highly efficient introduction into antibody,"[3]; anti-PSA IgG antibody, substrate 0.1 mM, MTG 1 U/ml, 4° C., 1 and 6 hours",~7
same,Substrate concentration dependency of antibody labeling,"[3]; anti-PSA IgG antibody, substrate 0.001-1 mM, MTG 1 U/ml, pH 8, 4° C.",proceeded with the increasing substrate concentration
same,MTG concentration at which a highly efficient reaction proceeded,"[3]; anti-PSA IgG antibody, substrate 1 mM, pH 8, 4° C., MTG 0.001-1 U/ml",1 U
same,Introduction into the antibody,[3]; before the addition of the resin (lanes 1-3),verified the introduction
